Measurements taken from patent EP2311457A1, “Pharmaceutical compositions for treating infections with drug resistant mycobacteria” (priority 2009, dated 2011).
Values after ≈ are worked out from the molar mass of the structure shown.

Tested on: Mtb 09457/06 XDR
Test: Drug susceptibility testing, radiometric MIC determination (BACTEC 460TB)
Conditions: Mycobacterium tuberculosis, read-out: minimal inhibitory concentrations

C(=NNc1nncc2ccccc12)c1ccc(OCc2ccccc2)cn1 [PH22-6, 5-benzyloxypyridine-2-aldehyde-1'-phthalazinylhydrazone] was tested, and the MIC was 1 µg/mL (≈ 2.81 µM).

For c1ccc(C(=NNc2nncc3ccccc23)c2ccccn2)cc1 [PH22-22, 2-benzoylpyridine-1'-phthalazinylhydrazone], the MIC was 5 µg/mL (≈ 15.4 µM).

In the case of Clc1ccc(NN=Cc2ccc(OCc3ccccc3)cn2)nn1 [PH22-51, 5-benzyloxypyridine-2-aldehyde-6'-chloro-3'-pyridazinylhydrazone], the MIC is reported as 1 µg/mL (≈ 2.94 µM).

CCc1ccc(C=NNc2cc(OC)ncn2)nc1 [PH22-33, 5-ethylpyridine-2-aldehyde-6'-methoxy-4'-pyrimidylhydrazone] gave an MIC of less than 0.125 µg/mL.

Cc1ccc(C=NNc2nncc3ccccc23)nc1 [PH22-16, 5-methyl-pyridine-2-aldehyde-1'-phthalazinylhydrazone] showed an MIC of less than 1 µg/mL.

C(=NNc1ncnc2ccccc12)c1ccc(OCc2ccccc2)cn1 [PH22-52, 5-benzyloxypyridine-2-aldehyde-4'-quinazolinylhydrazone] was tested, and the MIC was 1 µg/mL (≈ 2.81 µM).

c1ccc(C(=NNc2ccc3ccccc3n2)c2ccccn2)cc1 [PH22-15, 2-benzoylpyridine-2'-quinolylhydrazone] was tested, and the MIC was 0.25 µg/mL (≈ 0.771 µM).

C(=NNc1ccccn1)c1ccc(OCc2ccccc2)cn1 [PH22-49, 5-benzyloxypyridine-2-aldehyde-2'-pyridylhydrazone] was tested, and the MIC was 1 µg/mL (≈ 3.29 µM).

Work on Cc1cccc(NN=Cc2ccccn2)n1 [PH22-31, pyridine-2-aldehyde-6'-methyl-2'-pyridylhydrazone] yielded an MIC of 1 µg/mL (≈ 4.71 µM).

Work on Cc1ccc(C=NNc2ccc3ccccc3n2)nc1 [PH22-14, 5-methylpyridine-2-aldehyde-2'-quinolylhydrazone] yielded an MIC of 0.5 µg/mL (≈ 1.91 µM).
